Reference: PubChem BioAssay (NCI)
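Interpolation was linear, between the two tested concentrations surrounding the appropriate level; five concentrations were tested over 48 hours in 96-well plates. GI50 = concentration required for 50% inhibition of growth. At the TGI there is no net growth.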

How the values were obtained:
Experiment in all cases: inhibition of tumour cell growth, NCI panel, 48 h
HOP-92 NSCLC = system: HOP-92 NSCLC
SNB-19 CNS = system: SNB-19 CNS
PC-3 prostate = system: PC-3 prostate
SN12C renal = system: SN12C renal
HL-60(TB) leukemia = system: HL-60(TB) leukemia
U251 CNS = system: U251 CNS
KM12 colon = system: KM12 colon
SK-MEL-28 melanoma = system: SK-MEL-28 melanoma
SW-620 colon = system: SW-620 colon
MCF7 breast = system: MCF7 breast

Structure (SMILES) | GI50 (HOP-92 NSCLC) [µM] | TGI (HOP-92 NSCLC) [µM] | GI50 (SNB-19 CNS) [µM] | TGI (SNB-19 CNS) [µM] | GI50 (PC-3 prostate) [µM] | TGI (PC-3 prostate) [µM] | GI50 (SN12C renal) [µM] | TGI (SN12C renal) [µM] | GI50 (HL-60(TB) leukemia) [µM] | TGI (HL-60(TB) leukemia) [µM] | GI50 (U251 CNS) [µM] | TGI (U251 CNS) [µM] | GI50 (KM12 colon) [µM] | TGI (KM12 colon) [µM] | GI50 (SK-MEL-28 melanoma) [µM] | TGI (SK-MEL-28 melanoma) [µM] | GI50 (SW-620 colon) [µM] | TGI (SW-620 colon) [µM] | GI50 (MCF7 breast) [µM] | TGI (MCF7 breast) [µM]
N#CC(C#N)=CN1CCN(C(=O)c2ccco2)C1=S | 22.4 | > 100 | 38.7 | 82 | 17.3 | > 100 | 3.12 | 16.5 | 19.8 | 58.1 | 6.54 | > 100 | 4.12 | 32.2 | 12.5 | > 100 | 5.62 | > 100 | 3.45 | 28.4
O=C(O)C(=C\c1ccc2c(c1)OCO2)/C(=C/c1ccc2c(c1)OCO2)C(=O)O |  | > 100 |  | > 100 |  | > 100 |  | > 100 |  | > 100 |  | > 100 |  | > 100 |  | > 100 |  | > 100 |  | > 100
Cc1c(C#N)c2nnn(C)c(=O)n2c1-c1ccccc1 |  | > 100 |  | > 100 |  | > 100 |  | > 100 |  | > 100 |  | > 100 |  | > 100 |  | > 100 |  | > 100 |  | > 100
